Measured values as given in ChEMBL document CHEMBL1129260, “Evaluation of the stability and animal biodistribution of gadolinium (III) benzylamine-derivatized diethylenetriaminepentaacetic acid” (J Med Chem, 1996).

Assay: Gadolinium(III) stability constants (log K value) for the compound polyamino carboxylate derivative

Row | Structure (SMILES) | log K Gd(III) stability constant
1 | CCCOC(=O)CN(CCN(CCN(CC(=O)O)CC(=O)O)CC(=O)O)CC(=O)O | 18.9
2 | CCN(CCN(CC(=O)O)CC(=O)O)CCN(CC(=O)O)CC(=O)O | 17.8
3 | O=C(O)CN(CCN(CC(=O)O)CC(=O)O)CCN(CC(=O)O)C(COCc1ccccc1)C(=O)O (stereo not given) | 22.6
4 | CCCNC(=O)CN(CCN(CCN(CC(=O)O)CC(=O)O)CC(=O)O)CC(=O)O | 19.7
5 | O=C(O)CN(CCN(CC(=O)O)CC(=O)O)CCN(CC(=O)O)CC(=O)O [PENTETIC ACID] | 22.4
